# Test results as given in US9309256B2, “Pharmaceutically active dimers linked through phenolic hydroxyl groups” (OrphoMed LLC, priority 2014, dated 2016).
# Tests used:
# IBS-D patients = details: cited from earlier work
# μ opioid receptor [1] = target: T1, μ opioid receptor (Homo sapiens, UniProt P35372); details: briefing documents to FDA advisory committee; cited from earlier work
# Target sequence in this assay (P35372 whole entry, species assumed): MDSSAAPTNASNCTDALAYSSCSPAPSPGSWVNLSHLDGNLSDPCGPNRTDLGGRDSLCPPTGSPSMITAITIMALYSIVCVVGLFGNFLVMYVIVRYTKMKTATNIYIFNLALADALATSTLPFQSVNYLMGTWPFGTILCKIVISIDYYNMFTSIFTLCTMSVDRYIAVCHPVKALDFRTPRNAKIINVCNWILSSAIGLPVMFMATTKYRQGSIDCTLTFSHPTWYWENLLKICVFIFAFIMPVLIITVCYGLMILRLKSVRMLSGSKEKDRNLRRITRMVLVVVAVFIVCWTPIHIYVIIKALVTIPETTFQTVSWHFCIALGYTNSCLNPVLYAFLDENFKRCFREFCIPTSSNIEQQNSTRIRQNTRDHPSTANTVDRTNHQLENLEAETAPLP
# human liver microsomes [2] = assay: Metabolic stability of buprenorphine dimer in human liver microsomes; details: 1 μM, human liver microsomes 1 mg protein/mL, 37 °C, with or without NADPH co-factor, up to 2 hours
# Method: Incubations of the dimer (e.g., 1 μM) with human liver microsomes (e.g., 1 mg protein/mL) were carried out using a Tecan Liquid Handling System (Tecan), or equivalent, at 37±1° C. in 0.2-mL incubation mixtures (final volume) containing potassium phosphate buffer (50 mM, pH 7.4), MgCl2 (3 mM) and EDTA (1 mM, pH 7.4) with and without a cofactor, NADPH-generating system, at the final concentrations indicated in a 96-well plate format. The NADPH-generating system consisted of NADP (1 mM, pH 7.4), glucose-6-phosphate (5 mM, pH 7.4) and glucose-6-phosphate dehydrogenase (1 Unit/mL). The buprenorphine dimer was dissolved in aqueous methanolic solution (methanol 0.5% v/v, or less). […] Zero-time incubations served as 100% value to determine percent loss of substrate. […] The samples were subjected to centrifugation (e.g., 920×g for 10 min at 10° C.) and the supernatant fractions analyzed by LC-MS/MS. […]
# The above samples were analyzed by an LC-MS/MS method. […] Results were determined by a comparison of peak ratios over the time course of the experiment (typically reported as “% Parent Remaining”).
# Data were calculated with a LIMS (includes Galileo, Thermo Fisher Scientific Inc. and reporting tool, Crystal Reports, SAP), the spreadsheet computer program Microsoft Excel (Microsoft Corp.) or equivalent. […]
# human μ receptors [3] = target: T2, human μ receptors (Homo sapiens, UniProt P35372); assay: μ opioid receptor antagonist functional assay: [35S]GTPγS binding in CHO-hMOR cell membranes; assay type: biochemical; details: inhibition of agonist-stimulated GTPγS binding, FIG. 12
# T2 construct: purchased Receptor Biology Inc. (Baltimore Md.); host or cells: CHO-hMOR cell membranes
# T2 sequence (P35372 whole entry): as the sequence (P35372 whole entry, species assumed) above
# Method: (§1) This example illustrates the ability of the buprenorphine dimer provided herein to stimulate the p-opioid receptor-mediated signaling. Briefly, CHO-hMOR cell membranes were purchased from Receptor Biology Inc. (Baltimore Md.). About 10 mg/ml of membrane protein was suspended in 10 mM TRIS-HCl pH 7.2, 2 mM EDTA, 10% sucrose, and the suspension kept on ice. One mL of membranes was added to 15 mL cold binding assay buffer containing 50 mM HEPES, pH 7.6, 5 mM MgCl2, 100 mM NaCl, 1 mM DTT and 1 mM EDTA. The membrane suspension was homogenized with a polytron and centrifuged at 3000 rpm for 10 min. The supernatant was then centrifuged at 18,000 rpm for 20 min. The pellet was resuspended in 10 mL assay buffer with a polytron. […]
# (§2) The buprenorphine dimer was tested for function as an antagonist by evaluating its potential to inhibit agonist-stimulated GTPγS binding using D-Phe-Cys-Tyr-D-Trp-Orn-Thr-Pen-Thr-NH2 (CTOP) as the standard. Radioactivity was quantified on a Packard Top Count. The following parameters are calculated: % Stimulation=[(test compound cpm−non-specific cpm)/(basal cpm−non-specific cpm)]*100 % Inhibition=(% stimulation by 1 μM SNC80−% stimulation by 1 μM SNC80 in presence of test compound)*100/(% stimulation by 1 μM SNC80−100).
# (§3) EC50 was calculated using GraphPad Prism.
# [4] = target: T3, human δ subtype 2 opioid receptor (Homo sapiens, UniProt P41143); assay: Human δ opioid receptor binding assay (tritiated naltrindole displacement)
# T3 construct: purchased Perkin Elmer RBHODM400UA; host or cells: Chinese Hamster Ovary cells (membranes)
# T3 sequence (P41143 whole entry): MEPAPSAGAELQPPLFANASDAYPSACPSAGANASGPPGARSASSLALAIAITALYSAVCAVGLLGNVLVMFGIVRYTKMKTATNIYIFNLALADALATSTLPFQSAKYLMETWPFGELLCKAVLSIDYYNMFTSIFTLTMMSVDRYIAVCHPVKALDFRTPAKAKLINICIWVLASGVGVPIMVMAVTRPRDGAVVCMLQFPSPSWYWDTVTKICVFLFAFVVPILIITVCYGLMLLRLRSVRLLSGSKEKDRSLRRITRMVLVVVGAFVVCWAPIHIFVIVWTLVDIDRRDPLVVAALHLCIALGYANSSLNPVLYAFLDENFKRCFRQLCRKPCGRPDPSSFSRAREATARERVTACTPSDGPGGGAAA
# Method: The assay was designed to test the ability of a compound to interfere with the binding of tritiated naltrindole to the human δ subtype 2 opioid receptor. Membranes from Chinese Hamster Ovary cells expressing the human δ subtype 2 opioid receptor (Perkin Elmer #RBHODM400UA) were homogenized in assay buffer (50 mM Tris, pH 7.5 with 5 mM MgCl2) using a glass tissue grinder, Teflon pestle and Steadfast Stirrer (Fisher Scientific). The concentration of membranes was adjusted to 100 μg/mL in the assay plate, a 96 well round bottom polypropylene plate. Compounds to be tested were solubilized in DMSO, 10 mM, then diluted in assay buffer to 6× the desired final concentration. The ligand, ^3H-natrindole (Perkin Elmer #NET-1065) was also diluted in assay buffer to 6 nM. Aliquots of ^3H-natrindole (50 μL) were transferred to the assay plate containing the membranes in duplicate. The assay plate was incubated for 30 minutes at room temperature. A GF/C 96 well filter plate (Perkin Elmer #6005174) was pretreated with 0.3% polyethylenimine for 30 min. The contents of the assay plate were filtered through the filter plate using a Packard Filtermate Harvester, and washed 3 times with 0.9% saline at 4° C. The filter plate was dried, the underside sealed, and a 30 μL MictoS=scint 20 (Packard #6013621) was added to each well. A Topcount-NXT Microplate Scintillation Counter (Packard) was used to measure emitted energies in the range of 2.9 to 35 KeV. Results are compared to maximum binding, wells receiving no inhibitors. Nonspecific binding was determined in the presence of 1 μM unlabelled Natrindole. […] Relative to the μ and κ opioid receptors, the dimer has poor affinity for the δ receptor.
# male CD-1 mice [5] = assay: Effect on post-inflammatory altered GI transit time (mustard oil); assay type: in vivo; details: 25 mg per kg oral, mustard oil treated mice
# Method: This test was designed to measure the effect of test substance on gastrointestinal hypersensitivity following inflammation. Post-inflammatory altered GI transit was induced in male CD-1 mice by injecting freshly opened oil of mustard (95% pure allyl isothiocyanate, 0.5% in ethanol). The effect of stress on the post-inflammatory GI tract was tested 3-4 weeks after dosing. […] The effect of the test substance was measured after oral administration (intragastric gavage) and subjecting animals to environmental stress by housing them in cages (20 cm wide×20 cm deep×15 cm tall), equipped with a wire mesh bottom. During the test the animals were allowed access to water ad lib. The wire mesh bottomed tall cage creates a novel environment which induces stress in mice. The number of pellets excreted is determined on hourly to two-hourly basis.
# μ opioid receptor [6] = target: T1, μ opioid receptor; assay: Human μ opioid receptor binding assay (3H-Naloxone displacement); parameters: purchased Perkin Elmer RBHOMM400UA; host or cells: Chinese Hamster Ovary cells (membranes); details: FIG. 9
# Target sequence in this assay (P35372 whole entry): as the sequence (P35372 whole entry, species assumed) above
# Method: Membranes from Chinese Hamster Ovary cells expressing the human μ opioid receptor (Perkin Elmer #RBHOMM400UA) were homogenized in assay buffer (50 mM Tris, pH 7.5 with 5 mM MgCl2) using glass tissue grinder, Teflon pestle and Steadfast Stirrer (Fisher Scientific). The concentrates of the membranes were adjusted to 300 μg/mL in assay plate, a 96 well round bottom polypropylene plate. […] From the premix plate 50 μL was transferred to the assay plate containing the membranes, in duplicate. The assay plate was incubated for 2 h at room temperature. […] The contents of the assay plate were filtered through the filter plate using a Packard Filtermate Harvester, and washed 3 times with 0.9% saline at 4° C. […] A Topcount-NXT Microplate Scintillation Counter (Packard) was used to measure emitted energies in the range of 2.9 to 35 KeV. Results were compared to maximum binding, wells receiving no inhibitions.
# [7] = Stress stability assay of the buprenorphine dimer (tap water, acid, base, heat); assay type: physicochemical; details: 1N HCl, 5% aqueous sodium bicarbonate, room temperature and 140° F., up to 30 minutes
# Method: This study facilitated the understanding of the ease with which a potential abuser could cleave the dimer using household chemicals such as baking soda, acid or simple heating in water. Buprenorphine dimer stability was assessed at room temperature in untreated tap water and in presence of acid (1N HCl) or base (5% aqueous sodium bicarbonate).
# [8] = In vivo pharmacokinetic study, oral and IV; details: CD-1 mice, 10 mg/kg IV and oral gavage
# Method: Animals used in these animal pharmacokinetic studies were CD-1 mice (about 35 gms, n=3 per time point). Drugs tested were buprenorphine and the buprenorphine dimer. Dose 10 mg/kg IV and oral gavage. Blood was collected at time 0, 30 min and 1, 2, 6 and 24 hours. Blood samples for the drug were analyzed after harvesting the plasma and by LC/MS/MS as follows:
# Standard curve was prepared in mouse plasma spiked with either the test drugs (10-25000 nM). Plasma samples (50 μL) were extracted in 300 μL acetonitrile containing losartan or buprenorphine-d4 as internal standard. Extracts were centrifuged at 16000×g at 4° C. for 5 minutes. Supernatants (250 μL) were transferred to a new tube and dried under N2 at 45° C. for 1 hour. Samples were reconstituted with 100 μL of 30% acetonitrile, vortexed and centrifuged. Supernatants (90 μL) were transferred to LC vials and 10 μL is injected on LC/MS.
# human μ receptors [9] = target: T2, human μ receptors; assay: μ opioid receptor agonist functional assay: [35S]GTPγS binding in CHO-hMOR cell membranes; assay type: biochemical; details: FIG. 11
# Method: as §1, §2, §3
# male CD-1 mice [10] = assay: Stress-induced fecal output; assay type: in vivo
# Text: The animals used in the studies were male CD-1 mice, average weight about 30 to 35 g, with an average of 5 mice per dose group. The mice were generally housed in colony housing where they are housed 3 per cage in polycarbonate cages with access to food and water ad lib.
# On the day of the experiment the mice were transported to the procedure room where they were individually housed in 20 cm wide×20 cm deep×15 cm tall cages, equipped with a wire mesh bottom after intragastric administration of test compounds. During the test the animals were allowed access to water only ad lib. The wire mesh bottomed tall cage creates a novel environment which induces stress in mice. The number of pellets excreted was determined on an hourly basis.
# mice = details: mildly stressed mice
# Text: In the study a group mice were subjected to mild stress, which normally induces diarrhea and gastrointestinal motility measured by number of fecal pellets excreted per hour.
# [11] = room temperature, tap water, 1N HCl or 5% aqueous sodium bicarbonate
# human liver microsomes [12] = details: approximately 1 μM, human liver microsomes 1 mg protein/ml, up to 1 hour
# Method: Incubations of the dimer (e.g., 1 μM) with human liver microsomes (e.g., 1 mg protein/mL) were carried out using a Tecan Liquid Handling System (Tecan), or equivalent, at 37±1° C. in 0.2-mL incubation mixtures (final volume) containing potassium phosphate buffer (50 mM, pH 7.4), MgCl2 (3 mM) and EDTA (1 mM, pH 7.4) with and without a cofactor, NADPH-generating system, at the final concentrations indicated in a 96-well plate format. The NADPH-generating system consisted of NADP (1 mM, pH 7.4), glucose-6-phosphate (5 mM, pH 7.4) and glucose-6-phosphate dehydrogenase (1 Unit/mL). […] Zero-time incubations served as 100% value to determine percent loss of substrate. Incubations were carried out in triplicate with an exception for zero-time samples (which were incubated in quadruplicate). Zero-cofactor (no NADPH) incubations were performed at zero-time and the longest time point. The samples were subjected to centrifugation (e.g., 920×g for 10 min at 10° C.) and the supernatant fractions analyzed by LC-MS/MS. Additional incubations were carried out with microsomes and a marker substrate (e.g., dextromethorphan to monitor substrate loss) as a positive control to determine if the test system was metabolically competent.
# The incubation medium was assayed by LC/MS/MS for the formation of naloxone over time.
smiles,measurement,setting,value
COc1ccc(CN(C(=O)[C@@H](N)Cc2c(C)cc(C(N)=O)cc2C)[C@@H](C)c2ncc(-c3ccccc3)[nH]2)cc1C(=O)O [Eluxadoline],pancreatitis cases,IBS-D patients; Phase II trials,several cases of pancreatitis
same,Phase III efficacy endpoints,"IBS-D patients; Phase III testing, IBS-D",met primary endpoints of improvement in stool consistency and reduction of abdominal pain
C[N@+]1(CC2CC2)CC[C@]23c4c5ccc(O)c4O[C@H]2C(=O)CC[C@@]3(O)[C@H]1C5 [Methylnaltrexone Bromide],Ki,μ opioid receptor [1],42 nM
CO[C@]12CC[C@@]3(C[C@@H]1[C@](C)(O)C(C)(C)C)[C@H]1Cc4ccc(OCCOc5ccc6c7c5O[C@H]5[C@@]8(OC)CC[C@@]9(C[C@@H]8[C@](C)(O)C(C)(C)C)[C@@H](C6)N(CC6CC6)CC[C@]759)c5c4[C@@]3(CCN1CC1CC1)[C@H]2O5 [buprenorphine dimer],stability in presence of microsomal enzymes (% Parent Remaining),human liver microsomes [2],relatively stable
same,μ antagonist function,human μ receptors [3],does not function as a μ-antagonist
same,IC50,[4],7.6 nM
same,Ki,[4],2.87 nM
same,affinity for the δ receptor relative to the μ and κ opioid receptors,[4],poor affinity
same,gastrointestinal motility as measured by fecal output,male CD-1 mice [5],significantly decreases gastrointestinal motility
same,gastrointestinal motility as measured by fecal output at 2 hours,male CD-1 mice [5]; 2 hours,continues to inhibit gastrointestinal motility with statistically significant results
same,affinity for the opioid μ receptor,μ opioid receptor [6],significant affinity
same,stability / degradation to buprenorphine,[7],remained stable and did not degrade to release buprenorphine
same,absolute bioavailability (ratio of the area under the concentration curve after oral and IV dose),[8],≤ 1%
same,μ agonist function,human μ receptors [9],potent μ agonist
same,dose dependence of fecal output,male CD-1 mice [10]; FIG. 15,decreases with dose
same,fecal output versus placebo (vehicle),"male CD-1 mice [10]; oral, 25 and 50 mg per kg, stressed male CD-1 mice",significantly reduced the fecal output
"CO[C@]12CC[C@@]3(C[C@@H]1[C@](C)(O)C(C)(C)C)[C@H]1Cc4ccc(O)c5c4[C@@]3(CCN1CC1CC1)[C@H]2O5 [buprenorphine, Buprenorphine, reference compound]",absolute bioavailability (ratio of the area under the concentration curve after oral and IV dose),[8],about 30%
"CN(C)C(=O)C(CCN1CCC(O)(c2ccc(Cl)cc2)CC1)(c1ccccc1)c1ccccc1 [loperamide, reference compound]",number of pellets expelled versus control (vehicle) animals,mice,significantly less
C=CCN1CC[C@]23c4c5ccc(OCCOc6ccc7c8c6O[C@H]6C(=O)CC[C@@]9(O)[C@@H](C7)N(CC=C)CC[C@]869)c4O[C@H]2C(=O)CC[C@@]3(O)[C@H]1C5 [naloxone dimer],stability / degradation to naloxone,[11],does not appreciably degrade to naloxone
same,formation of naloxone over time,human liver microsomes [12],no evidence of formation naloxone over time
same,reversal of loperamide-induced constipation (fecal pellets excreted per hour),mice; comparable to control by hour 3 or later,reversed the constipating effects
